Paper PMC10349806 (Nature Communications, 2023)
Values joined by “and” are separate entries in the source; they are usually repeats but may differ in a detail not shown here. Equal entries are not always repeated.

Tested on: PfCRT variant E207Q
Experiment: CQ uptake assay, oocytes expressing E207Q
Assay type: cell-based, Plasmodium falciparum
Procedure: Site-directed mutagenesis of PfCRT^Dd2 was performed as described using the megaprimer method with overlap extension[21],[54]. The primer pairs used are listed in Supplementary Table 6. Please note that a codon-optimized and oocyte-adapted version of PfCRT^Dd2 was used[22] (Supplementary Fig. 16). The resulting DNA fragment was cloned into the SP64T expression vector and verified by sequencing.
Oocytes were obtained as described previously. Briefly, adult (>2 years old) female X. laevis frogs (NASCO) were anesthetized in a cooled solution of ethyl 3-amino benzoate methanesulfonate (0.1%, w/v), followed by a surgical removal of parts of the ovary. The ovary lobes were carefully dissected and small pieces of oocytes were incubated in Ca^2+-free ND96 buffer (96 mM NaCl, 2 mM KCl, 1 mM MgCl2 buffered with 5 mM HEPES/NaOH, pH 7.5) supplemented with collagenase D (0.1%, w/v; Roche), BSA (0.5%, w/v), and 9 mm Na2HPO4 at 18 °C for 14-16 h while gentle shaking. After incubation, the oocytes were carefully washed several times with ND96 buffer (96 mM NaCl, 2 mM KCl, 1.8 mM CaCl2, 1 mM MgCl2 buffered with 5 mM HEPES/NaOH, pH 7.5) supplemented with 100 mg l^−1 gentamycin). Defolliculated and healthy-looking stage V-VI oocytes were manually selected for RNA microinjection. The RNA was generated as following: The codon-optimized sequences of PfCRT variants were cloned into the pSP64T expression vector. After vector linearization using the restriction endonucleases BamHI or SalI (New England Biolabs), transcription was performed using the in vitro SP6 mMessage mMachine Kit (Ambion)[34]. The obtained RNA was kept at −80 °C and diluted with nuclease-free water to a concentration of 0.6 μg μl^−1. Precision-bore glass capillary tubes (3.5-inch glass capillaries; Drummond Scientific Co.) were pulled on a vertical puller (P-87 Flaming/Brown micropipette puller, Sutter Instrument Co.), graduated, and placed on a microinjector (Nanoject II Auto-Nanoliter Injector, Drummond Scientific Co.). 50 nl of nuclease-free water alone (control oocytes) or 50 nl of 0.6 μg μl^−1 RNA were injected under stereomicroscopic control. Injected oocytes were incubated for 46–72 h at 18 °C with twice-daily buffer changes before usage in experiments.
Drug uptake assays were performed as described previously[21],[22],[24],[34]. […] The direction of radio-labeled drug transport is here from the mostly acidic extracellular solution (pH 4.5 or 6.0, as indicated) into the oocyte cytosol (pH ∼ 7.2), which corresponds to the efflux of drug from the acidic digestive vacuole (pH 5.2) into the parasite cytoplasm (pH 7.2). The topology of PfCRT in the oolemma is such that both the N- and C-terminus face the extracellular milieu[3],[22]. In the parasite, the N- and C-terminus face the lumen of the digestive vacuole. […] For determination of the amount of drug uptake for each oocyte, the reaction medium was removed and the oocytes were washed three times with 2 ml of ice-cold ND96 buffer. Each oocyte was individually transferred to a scintillation vial containing 5% sodium dodecyl sulfate (200 μl) for lysis. […] Oocytes that were injected with water instead of RNA were analyzed in parallel, representing the uptake of a drug by diffusion and/or endogenous permeation pathways. […] The specific PfCRT-mediated uptake was determined by subtracting the corresponding background value measured in water-injected oocytes from that of PfCRT-expressing oocytes. […]

CCN(CC)CCCC(C)Nc1ccnc2cc(Cl)ccc12 (centres unmarked) [CQ, chloroquine]
Activity at pH 4.5 (E207Q, 50 µM CQ, 1 h, mean ± SEM): 2.15 ± 0.52 pmol h-1 oocyte-1 | R-value (E207Q, CQ transport at pH 4.5 / pH 6.0): 0.88 ± 0.01 | E207Q transport activity pH 4.5 (pH 4.5, individual replicates, Fig 6b): 1.41 pmol oocyte-1 h-1 and 3.42 pmol oocyte-1 h-1 and 1.62 pmol oocyte-1 h-1 | E207Q transport activity pH 6.0 (pH 6.0, individual replicates, Fig 6b): 1.59 pmol oocyte-1 h-1 and 3.69 pmol oocyte-1 h-1 and 1.95 pmol oocyte-1 h-1 | E207Q R-value (ratio of activity pH 4.5 / pH 6.0): 0.89 and 0.93 and 0.83
